The values below come from patent publication US9000153B2, “Imidazo[4,5-c]quinolines as DNA-PK inhibitors” (Merck Patent GmbH, priority 2010, dated 2015).

SMILES strings stand for the structures. A value given as a limit tells only on which side of the number the result lay.

The assay has as its target DNA-PK (Homo sapiens (Human), UniProt P78527). The assay is described as follows: DNA-PK/biochemical assay (FlashPlate kinase assay). To be noted: 5 μM ATP, 90 min, room temperature. As for the experimental part: The kinase assay was carried out in streptavidin-coated […] microtitre FlashPlates®. To this end, 1.5 μg of the DNA-PK/protein complex and 100 ng of biotinylated substrate, such as, for example, PESQEAFADLWKK biotin-NH2 (“biotin-DNA-PK peptide”), in a total volume of 36.5 μl (34.25 mM HEPES/KOH, 7.85 mM Tris-HCl, 68.5 mM KCl, 5 μM ATP, 6.85 mM MgCl2, 0.5 mM EDTA, 0.14 mM EGTA, 0.69 mM DTT, pH 7.4), were incubated at room temperature for 90 min with 500 ng of DNA from calf thymus, 0.1 μCi of 33P-ATP and 1.8% of DMSO per well with or without the test compound. The reaction was stopped using 50 μl/well of 200 mM EDTA. After incubation for a further 30 min at room temperature, the liquid was removed. Each well was washed three times with 100 μl of 0.9% sodium chloride solution. A non-specific reaction (blank value) was determined using 10 μM of a proprietary kinase inhibitor. The radioactivity measurement was carried out by means of a TopCount. IC50 values were calculated in RS1 (Kashishian et al. (2003) Molecular Cancer Therapeutics 1257).
The compound `COc1cc2ncc3[nH]c(=O)n(-c4c(F)cc(C#N)cc4F)c3c2cc1OCc1ccccc1` [Compound 10, 4-(8-Benzyloxy-7-methoxy-2-oxo-2,3-dihydroimidazo-[4,5-c]quinolin-1-yl)-3,5-difluorobenzonitrile] registered an IC50 below 100 nM. `COc1cc2ncc3c(c2cc1OC(C(N)=O)c1ccc(F)cc1)n(-c1ccc(C#N)cc1F)c(=O)n3C` (centres unmarked) [Compound 15, 2-[1-(4-Cyano-2-fluorophenyl)-7-methoxy-3-methyl-2-oxo-2,3-dihydro-1H-imidazo[4,5-c]-quinolin-8-yloxy]-2-(4-fluoro-phenyl)acetamide] came in with an IC50 below 100 nM. For `COc1cc2ncc3c(c2cc1OCc1ccsc1)n(-c1c(F)cc(C#N)cc1F)c(=O)n3C` [Compound 26, 3,5-Difluoro-4-(7-methoxy-3-methyl-2-oxo-8-(thiophen-3-ylmethoxy)-2,3-dihydroimidazo-[4,5-c]quinolin-1-yl)benzonitrile], the IC50 was below 100 nM. As for `COc1cc2ncc3[nH]c(=O)n(-c4ccc(C#N)cc4)c3c2cc1OCc1ccccc1` [Compound 6, 4-(8-Benzyloxy-7-methoxy-2-oxo-2,3-dihydroimidazo-[4,5-c]quinolin-1-yl)-benzonitrile], the 50% inhibitory concentration (IC50) was below 100 nM. Turning to `COc1cc2ncc3c(c2cc1OCc1ccsc1)n(-c1ccc(C#N)cc1F)c(=O)n3C` [Compound 13, 3-Fluoro-4-(7-methoxy-3-methyl-2-oxo-8-(thiophen-3-ylmethoxy)-2,3-dihydroimidazo[4,5-c]-quinolin-1-yl)benzonitrile], the IC50 was below 100 nM. `COc1cc2ncc3c(c2cc1OCc1ccc(F)cc1)n(-c1c(F)cc(C#N)cc1F)c(=O)n3C` [Compound 27, 3,5-Difluoro-4-[8-(4-fluoro-benzyloxy)-7-methoxy-3-methyl-2-oxo-2,3-dihydroimidazo-[4,5-c]quinolin-1-yl]benzonitrile] came in with an IC50 below 100 nM.

In turn, `COc1cc2ncc3c(c2cc1-c1ccnn1C)n(-c1ccc(C#N)cc1F)c(=O)n3C` [Compound 38, 3-Fluoro-4-[7-methoxy-3-methyl-8-(2-methyl-2H-pyrazol-3-yl)-2-oxo-2,3-dihydroimidazo[4,5-c]-quinolin-1-yl)benzonitrile] registered an IC50 of 100 to 500 nM. `COc1cc2ncc3c(c2cc1OCc1ccccc1Br)n(-c1ccc(C#N)cc1F)c(=O)n3C` [Compound 21, 4-[8-(2-Bromobenzyloxy)-7-methoxy-3-methyl-2-oxo-2,3-dihydroimidazo[4,5-c]quinolin-1-yl]-3-fluorobenzonitrile] yielded an IC50 below 100 nM. `COc1cc2ncc3c(c2cc1-c1cnc2ccccc2c1)n(-c1ccc(C#N)cc1F)c(=O)n3C` [Compound 35, 3-Fluoro-4-(7-methoxy-3-methyl-2-oxo-8-quinolin-3-yl-2,3-dihydroimidazo[4,5-c]quinolin-1-yl)benzonitrile]: the half-maximal inhibitory concentration (IC50) is below 100 nM. In the case of `COc1cc2ncc3c(c2cc1OCc1cccs1)n(-c1c(F)cc(C#N)cc1F)c(=O)n3C` [Compound 28, 3,5-Difluoro-4-(7-methoxy-3-methyl-2-oxo-8-(thiophen-2-ylmethoxy)-2,3-dihydroimidazo-[4,5-c]quinolin-1-yl)benzonitrile] it was below 100 nM. Compound `COC(=O)n1c(=O)n(-c2ccc(C#N)cc2F)c2c3cc(OCc4ccccc4)c(OC)cc3ncc21` [Compound 12, Methyl 8-benzyloxy-1-(4-cyano-2-fluorophenyl)-7-methoxy-2-oxo-1,2-dihydroimidazo[4,5-c]-quinoline-3-carboxylate] yielded an IC50 below 100 nM. In the case of `COc1cc2ncc3c(c2cc1OC(C(N)=O)c1ccc(F)cc1)n(-c1c(F)cc(C#N)cc1F)c(=O)n3C` (centres unmarked) [Compound 25, 2-[1-(4-Cyano-2,6-difluoro-phenyl)-7-methoxy-3-methyl-2-oxo-2,3-dihydro-1H-imidazo-[4,5-c]quinolin-8-yloxy]-2-(4-fluorophenyl)acetamide] it was below 100 nM; in that of `COc1cc2ncc3c(c2cc1OCc1ccc(F)cc1)n(-c1ccc(C#N)cc1F)c(=O)n3C` [Compound 17, 3-Fluoro-4-[8-(4-fluoro-benzyloxy)-7-methoxy-3-methyl-2-oxo-2,3-dihydro-imidazo[4,5-c]quinolin-1-yl]-benzonitrile], below 100 nM. To `COc1cc2ncc3c(c2cc1O)n(-c1c(F)cc(C#N)cc1F)c(=O)n3C` [Compound 5, 3,5-Difluoro-4-(8-hydroxy-7-methoxy-3-methyl-2-oxo-2,3-dihydroimidazo[4,5-c]quinolin-1-yl)benzonitrile] belongs below 100 nM; to `COc1cc2ncc3c(c2cc1OCc1cncs1)n(-c1ccc(C#N)cc1F)c(=O)n3C` [Compound 30, 3-Fluoro-4-[7-methoxy-3-methyl-2-oxo-8-(thiazol-5-ylmethoxy)-2,3-dihydroimidazo[4,5-c]-quinolin-1-yl)benzonitrile], below 100 nM.

In turn, `COc1cc2ncc3c(c2cc1OCc1ccc(F)cc1Cl)n(-c1ccc(C#N)cc1F)c(=O)n3C` [Compound 23, 4-[8-(2-Chloro-4-fluorobenzyloxy)-7-methoxy-3-methyl-2-oxo-2,3-dihydro-imidazo[4,5-c]quinolin-1-yl]-3-fluorobenzonitrile] displayed an IC50 below 100 nM. In turn, `COc1cc2ncc3c(c2cc1OCc1ccc(F)cc1Br)n(-c1ccc(C#N)cc1F)c(=O)n3C` [Compound 22, 4-[8-(2-Bromo-4-fluorobenzyloxy)-7-methoxy-3-methyl-2-oxo-2,3-clihydro-imidazo[4,5-c]quinolin-1-yl]-3-fluorobenzonitrile] gave an IC50 below 100 nM. The compound `COc1cc2ncc3c(c2cc1-c1cc(C(F)(F)F)nn1C)n(-c1ccc(C#N)cc1F)c(=O)n3C` [Compound 40, 3-Fluoro-4-[7-methoxy-3-methyl-8-(2-methyl-5-trifluoromethyl-2H-pyrazol-3-yl)-2-oxo-2,3-dihydro-imidazo[4,5-c]quinolin-1-yl]-benzonitrile] showed an IC50 of 100 to 500 nM. `COc1cc2ncc3[nH]c(=O)n(-c4ccc(C#N)cc4)c3c2cc1OC` [Compound 1, 4-(7,8-Dimethoxy-2-oxo-2,3-dihydroimidazo[4,5-c]quinolin-1-yl)benzonitrile] yielded an IC50 below 100 nM. Consider `COc1cc2ncc3c(c2cc1OCc1ccccc1)n(-c1ccc(C#N)cc1F)c(=O)n3C` [Compound 9, 4-(8-Benzyloxy-7-methoxy-3-methyl-2-oxo-2,3-dihydro-imidazo[4,5-c]quinolin-1-yl)-3-fluorobenzonitrile], for which the IC50 was below 100 nM. `COc1cc2ncc3c(c2cc1-c1cn[nH]c1)n(-c1ccc(C#N)cc1F)c(=O)n3C` [Compound 37, 3-Fluoro-4-[7-methoxy-3-methyl-2-oxo-8-(1H-pyrazol-4-yl)-2,3-dihydroimidazo[4,5-c]quinolin-1-yl)benzonitrile] returned an IC50 below 100 nM.

The compound `COc1cc2ncc3c(c2cc1OCc1sccc1S(=O)(=O)N1CCOCC1)n(-c1ccc(C#N)cc1F)c(=O)n3C` [Compound 19, 3-Fluoro-4-{7-methoxy-3-methyl-8-[3-(morpholine-4-sulfonyl)-thiophen-2-ylmethoxy]-2-oxo-2,3-dihydro-1H-imidazo[4,5-c]-quinolin-1-yl}benzonitrile] had an IC50 of 100 to 500 nM.

`COc1cc2ncc3c(c2cc1/C=C/c1ccsc1)n(-c1ccc(C#N)cc1F)c(=O)n3C` [Compound 41, 3-Fluoro-4-[7-methoxy-3-methyl-2-oxo-8-((E)-2-thiophen-3-yl-viniyl)-2,3-dihydroimidazo-[4,5-c]quinolin-1-yl]benzonitrile] came in with an IC50 below 100 nM.

With `COc1cc2ncc3c(c2cc1OCc1ccccc1)n(-c1c(F)cc(C#N)cc1F)c(=O)n3C` [Compound 11, 4-(8-Benzyloxy-7-methoxy-3-methyl-2-oxo-2,3-dihydro-imidazo[4,5-c]quinolin-1-yl)-3,5-difluorobenzonitrile], the IC50 is below 100 nM. For the compound `COc1cc2ncc3c(c2cc1OC)n(-c1ccc(C#N)cc1)c(=O)n3C` [Compound 2, 4-(7,8-Dimethoxy-3-methyl-2-oxo-2,3-dihydroimidazo-[4,5-c]quinolin-1-yl)-benzonitrile], the IC50 was below 100 nM. `COc1cc2ncc3c(c2cc1OCc1ccc(F)c(Cl)c1)n(-c1ccc(C#N)cc1F)c(=O)n3C` [Compound 24, 4-[8-(3-Chloro-4-fluorobenzyloxy)-7-methoxy-3-methyl-2-oxo-2,3-dihydro-imidazo[4,5-c]quinolin-1-yl]-3-fluorobenzonitrile] yielded a concentration for half-maximal inhibition (IC50) below 100 nM.

As for `COc1ccc(-c2cc3c(cc2OC)ncc2c3n(-c3ccc(C#N)cc3F)c(=O)n2C)cn1` [Compound 34, 3-Fluoro-4-[7-methoxy-8-(6-methoxypyridin-3-yl)-3-methyl-2-oxo-2,3-dihydroimidazo[4,5-c]-quinolin-1-yl)benzonitrile], the IC50 is below 100 nM. Compound `COc1cc2ncc3c(c2cc1OC(C(N)=O)c1ccccc1)n(-c1ccc(C#N)cc1F)c(=O)n3C` (centres unmarked) [Compound 18, 2-[1-(4-Cyano-2-fluorophenyl)-7-methoxy-3-methyl-2-oxo-2,3-dihydro-1H-imidazo[4,5-c]-quinolin-8-yloxy]-2-phenyl-acetamide] showed an IC50 below 100 nM. For the compound `COc1cc2ncc3c(c2cc1-c1cccnc1)n(-c1ccc(C#N)cc1F)c(=O)n3C` [Compound 33, 3-Fluoro-4-(7-methoxy-3-methyl-2-oxo-8-pyridin-3-yl-2,3-dihydro-imidazo[4,5-c]quinolin-1-yl)-benzonitrile], the IC50 is below 100 nM.
